Test results taken from the supplement of paper PMC10307832.

How the values were obtained:
Experiment in all cases: relative viability (nuclei count vs DMSO), 5 days (fraction); higher = more cells survive
Vemurafenib + Lapatinib = compound: CCCS(=O)(=O)Nc1ccc(F)c(C(=O)c2c[nH]c3ncc(-c4ccc(Cl)cc4)cc23)c1F [Vemurafenib] + CS(=O)(=O)CCNCc1ccc(-c2ccc3ncnc(Nc4ccc(OCc5cccc(F)c5)c(Cl)c4)c3c2)o1 [Lapatinib] (partner 2 µM)
Method in brief: (§1)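 Lung cancer cell lines in 1536-well plates were dosed by pin tool the day after seeding, either with one drug alone or with a fixed anchor-drug dose plus five library-drug doses (not always all listed) in √10 steps. After 5 days, cells were fixed and their nuclei stained in one step (final 0.05% Triton X-100, 1% formaldehyde, 1 ug/ml Hoechst), then counted on 4× images. Relative viability is the nuclei count in treated wells divided by that in vehicle wells. Values are medians of duplicate plates.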

Alpelisib + Pictilisib = compound: Cc1nc(NC(=O)N2CCC[C@H]2C(N)=O)sc1-c1ccnc(C(C)(C)C(F)(F)F)c1 [Alpelisib] + CS(=O)(=O)N1CCN(Cc2cc3nc(-c4cccc5[nH]ncc45)nc(N4CCOCC4)c3s2)CC1 [Pictilisib] (partner 1 µM)
Method in brief: as §1

Alpelisib + OSI-027 = compound: Cc1nc(NC(=O)N2CCC[C@H]2C(N)=O)sc1-c1ccnc(C(C)(C)C(F)(F)F)c1 [Alpelisib] + COc1cccc2cc(-c3nc([C@H]4CC[C@H](C(=O)O)CC4)n4ncnc(N)c34)[nH]c12 [OSI-027] (partner 0.5 µM)
Method in brief: as §1

Alpelisib + Decitabine = compound: Cc1nc(NC(=O)N2CCC[C@H]2C(N)=O)sc1-c1ccnc(C(C)(C)C(F)(F)F)c1 [Alpelisib] + Nc1ncn([C@H]2C[C@H](O)[C@@H](CO)O2)c(=O)n1 [Decitabine] (partner 2 µM)
Method in brief: as §1

| Cell Line | relative viability (Vemurafenib + Lapatinib; first compound 0.03162 µM) | relative viability (Vemurafenib + Lapatinib; first compound 0.1 µM) | relative viability (Vemurafenib + Lapatinib; first compound 0.3162 µM) | relative viability (Vemurafenib + Lapatinib; first compound 1 µM) | relative viability (Alpelisib + Pictilisib; first compound 0.04 µM) | relative viability (Alpelisib + Pictilisib; first compound 0.1265 µM) | relative viability (Alpelisib + Pictilisib; first compound 0.4 µM) | relative viability (Alpelisib + Pictilisib; first compound 1.265 µM) | relative viability (Alpelisib + Pictilisib; first compound 4 µM) | relative viability (Alpelisib + OSI-027; first compound 0.04 µM) | relative viability (Alpelisib + OSI-027; first compound 0.1265 µM) | relative viability (Alpelisib + OSI-027; first compound 0.4 µM) | relative viability (Alpelisib + OSI-027; first compound 1.265 µM) | relative viability (Alpelisib + OSI-027; first compound 4 µM) | relative viability (Alpelisib + Decitabine; first compound 0.04 µM) | relative viability (Alpelisib + Decitabine; first compound 0.1265 µM) | relative viability (Alpelisib + Decitabine; first compound 0.4 µM) | relative viability (Alpelisib + Decitabine; first compound 1.265 µM) | relative viability (Alpelisib + Decitabine; first compound 4 µM) |
| --- | --- | --- | --- | --- | --- | --- | --- | --- | --- | --- | --- | --- | --- | --- | --- | --- | --- | --- | --- |
| IA-LM | 0.764 | 0.715 | 0.684 | 0.608 | 0.265 | 0.412 | 0.432 | 0.335 | 0.327 |  |  |  |  |  |  |  |  |  |  |
| NCI-H1650 | 0.7 |  | 0.699 | 0.738 | 0.625 | 0.488 | 0.631 | 0.595 | 0.494 | 0.637 | 0.561 | 0.529 | 0.433 | 0.374 | 0.346 | 0.365 | 0.389 | 0.345 | 0.362 |
| NCI-H322M | 0.583 |  | 0.801 | 0.491 | 0.491 | 0.553 | 0.544 | 0.473 | 0.478 | 0.56 | 0.527 | 0.515 | 0.36 | 0.41 | 0.722 | 0.707 | 0.721 | 0.627 | 0.529 |
| SW 1573 | 1.01 | 0.916 | 1.02 | 0.978 | 0.498 | 0.506 | 0.557 | 0.459 | 0.352 | 0.661 | 0.438 | 0.571 | 0.404 | 0.337 | 0.489 | 0.453 | 0.626 | 0.365 | 0.359 |
| HCC-827 | 0.209 |  | 0.22 | 0.191 | 0.887 | 1.18 | 0.933 | 0.973 | 0.651 | 0.808 | 0.803 | 0.689 | 0.57 | 0.384 | 0.33 | 0.346 | 0.347 | 0.302 | 0.254 |
| LU99A | 0.878 | 0.985 | 1.03 | 0.916 | 0.293 | 0.278 | 0.374 | 0.296 | 0.251 | 0.306 | 0.3 | 0.296 | 0.234 | 0.224 | 0.822 | 0.838 | 0.899 | 0.666 | 0.579 |
| LK-2 | 0.674 | 0.867 | 0.835 | 0.505 | 0.531 | 0.571 | 0.643 | 0.524 | 0.578 | 0.215 | 0.208 | 0.16 | 0.142 | 0.158 | 0.289 | 0.256 | 0.254 | 0.198 | 0.185 |
| EMC-BAC-2 | 0.874 | 0.916 | 0.812 | 0.882 | 0.512 | 0.516 | 0.62 | 0.528 | 0.479 | 0.368 | 0.329 | 0.334 | 0.285 | 0.218 | 0.924 |  | 0.965 | 0.72 | 0.747 |
| NCI-H2342 |  |  |  |  |  |  |  |  |  | 0.626 | 0.594 | 0.553 | 0.559 | 0.421 | 0.697 | 0.666 | 0.701 | 0.711 | 0.503 |
| NCI-H460 | 0.929 | 1.08 | 0.82 | 0.926 | 0.388 | 0.389 | 0.378 | 0.345 | 0.297 | 0.545 | 0.623 | 0.534 | 0.242 | 0.137 | 0.496 | 0.571 | 0.436 | 0.442 | 0.291 |
| NCI-H441 |  |  |  |  | 0.438 | 0.448 | 0.547 | 0.382 | 0.41 | 0.656 | 0.64 | 0.643 | 0.296 | 0.305 | 0.244 | 0.215 | 0.271 | 0.22 | 0.224 |
| NCI-H661 | 0.488 | 0.534 | 0.507 | 0.424 | 0.374 | 0.367 | 0.475 | 0.506 | 0.346 | 0.628 | 0.668 | 0.709 | 0.523 | 0.493 | 0.56 | 0.586 | 0.576 | 0.474 | 0.495 |
| NCI-H727 | 0.653 | 0.772 | 1.16 | 0.886 | 0.302 | 0.462 | 0.404 | 0.325 | 0.373 | 0.753 | 0.397 | 0.522 | 0.359 | 0.391 | 0.973 | 0.859 | 0.881 | 0.854 | 0.828 |
| NCI-H1651 | 0.853 | 0.772 | 0.756 | 0.824 | 0.606 | 0.596 | 0.638 | 0.547 | 0.644 | 0.638 | 0.688 | 0.646 | 0.569 | 0.473 | 0.625 | 0.557 | 0.703 | 0.598 | 0.439 |
| NCI-H1355 | 0.962 | 0.956 | 0.837 | 1.08 | 0.444 | 0.568 | 0.436 | 0.521 | 0.425 | 0.406 | 0.325 | 0.311 | 0.285 | 0.235 | 0.41 | 0.386 | 0.328 | 0.328 | 0.297 |
| NCI-H1793 | 0.442 |  | 0.645 | 0.872 | 0.363 | 0.486 | 0.432 | 0.328 | 0.314 | 0.284 | 0.24 | 0.228 | 0.195 | 0.161 | 0.539 | 0.466 | 0.449 | 0.388 | 0.275 |
| NCI-H1666 | 0.581 |  | 0.72 | 0.654 | 0.508 | 0.459 | 0.536 | 0.479 | 0.344 | 0.837 | 0.826 | 0.807 | 0.609 | 0.536 | 0.686 | 0.708 | 0.781 | 0.694 | 0.612 |
| NCI-H838 | 0.877 | 1.05 |  | 1.12 | 0.439 | 0.471 | 0.427 | 0.47 | 0.434 | 0.386 | 0.366 | 0.317 | 0.244 | 0.211 | 0.405 | 0.422 | 0.508 | 0.438 | 0.359 |
